Laboratory results as given in ChEMBL document CHEMBL5584343, “Cerastecin Inhibition of the Lipooligosaccharide Transporter MsbA to Combat Acinetobacter baumannii: From Screening Impurity to In Vivo Efficacy” (J Med Chem, 2024).
Values after ≈ are worked out from the molar mass of the structure shown.

What was measured:
Acinetobacter baumannii [1] = assay: Antibacterial activity against Acinetobacter baumannii ATCC19606 assessed as bacterial growth inhibition incubated for 18 to 20 hrs by microbroth dilution method; format: functional; conditions: time 18-20 hrs
[2] = Cytotoxicity against GFP fused human MT4 cells cultured under serum free condition for 24 hrs by CellTiter-Glo assay; format: toxicity, cell-based; conditions: GFP fused MT4 cells
[3] = Inhibition of wildtype Acinetobacter baumannii MsbA preincubated for 30 mins followed by ATP addition and measured after 1 hrs by Transcreener ADP2 F1 assay
Acinetobacter baumannii [4] = assay: Antibacterial activity against Acinetobacter baumannii ATCC19606 incubated for 18 to 20 hrs in presence of 1% of human serum by microbroth dilution method; format: functional; conditions: time 18-20 hrs
[5] = Plasma protein binding in C57BL/6 mouse at 1000 to 100000 ng/ml by equilibrium dialysis based LC-MS/MS analysis; format: ADME, cell-free; conditions: dose 1000-100000 ng/ml, read-out: PPB (converted)
Acinetobacter baumannii [6] = assay: Selectivity ratio of MIC95 for antibacterial activity against Acinetobacter baumannii ATCC19606 in the presence of 1% human serum to MIC95 for antibacterial activity against Acinetobacter baumannii ATCC19606; format: functional
Acinetobacter baumannii [7] = assay: (§1) Antibacterial activity against Acinetobacter baumannii CLB21655 infected in female DBA mouse blood stream infection model assessed as fold change in colony forming units in spleen at 100 mg/kg, sc pre-infected with bacteria for 0.5 hrs followed by once daily compound administration and measured after 8 hrs relative to control; format: functional
Acinetobacter baumannii [8] = assay: as §1, with “200” for “100”; format: functional
Acinetobacter baumannii [9] = assay: as §1, with “300” for “100”; format: functional
Acinetobacter baumannii [10] = assay: as §1, with “10” for “100”, “thrice” for “once”; format: functional
Acinetobacter baumannii [11] = assay: (§2) Antibacterial activity against Acinetobacter baumannii CLB21655 infected in female DBA mouse lung infection model assessed as fold change in colony forming units in lung at 300 mg/kg, sc pre-infected with bacteria for 2 hrs followed by thrice daily compound administration with 3 hrs interval and measured after 24 hrs relative to control; format: functional
Acinetobacter baumannii [12] = assay: as §2, with “once” for “thrice”, “administration” for “administration with 3 hrs interval”; format: functional
Acinetobacter baumannii [13] = assay: Antibacterial activity against Acinetobacter baumannii ATCC19606 incubated for 18 to 20 hrs in presence of 50% mouse serum by microbroth dilution method; format: functional; conditions: time 18-20 hrs
Acinetobacter baumannii [14] = assay: as §1, with “reduction” for “fold change”, “bacterial burden” for “colony forming units”, “(reference value: 6.5 log10CFU/g)” for “relative to control”; format: functional
Acinetobacter baumannii [15] = assay: as §1, with “reduction” for “fold change”, “bacterial burden” for “colony forming units”, “200” for “100”, “(reference value: 6.5 log10CFU/g)” for “relative to control”; format: functional
Acinetobacter baumannii [16] = assay: as §1, with “reduction” for “fold change”, “bacterial burden” for “colony forming units”, “300” for “100”, “(reference value: 6.5 log10CFU/g)” for “relative to control”; format: functional
Acinetobacter baumannii [17] = assay: as §1, with “reduction” for “fold change”, “bacterial burden” for “colony forming units”, “300” for “100”, “thrice” for “once”, “(reference value: 6.3 log10CFU/g)” for “relative to control”; format: functional
Acinetobacter baumannii [18] = assay: as §2, with “reduction” for “fold change”, “bacterial burden” for “colony forming units”, “(reference value: 9.7 log10CFU/g)” for “relative to control”; format: functional
Acinetobacter baumannii [19] = assay: (§3) Antibacterial activity against Acinetobacter baumannii CLB21655 infected in female DBA mouse lung infection model assessed as reduction in bacterial burden in lung at 300 mg/kg, sc pre-infected with bacteria for 2 hrs followed by once daily compound administration and measured after 24 hrs (reference value: 9.7 log10CFU/g); format: functional
Acinetobacter baumannii [20] = assay: (§4) Antibacterial activity against Acinetobacter baumannii CLB21655 infected in female DBA mouse lung infection model assessed as fold change in colony forming units in lung at 160 mg/kg, sc pre-infected with bacteria for 2 hrs followed by compound administration and measured after 24 hrs in presence of ceftazidime relative to control; format: functional
Acinetobacter baumannii [21] = assay: (§5) Antibacterial activity against Acinetobacter baumannii CLB21655 infected in female DBA mouse lung infection model assessed as reduction in bacterial burden in lung at 160 mg/kg, sc pre-infected with bacteria for 2 hrs followed by compound administration and measured after 24 hrs in presence of ceftazidime (reference value: 9.7 log10CFU/g); format: functional
Acinetobacter baumannii [22] = assay: as §3, with “mouse blood stream” for “mouse lung”, “in spleen” for “in lung”, “at 10” for “at 300”, “for 0.5” for “for 2”, “after 8” for “after 24”, “value: 5.85” for “value: 9.7”; format: functional
Acinetobacter baumannii [23] = assay: as §1, with “10” for “100”; format: functional
Acinetobacter baumannii [24] = assay: Antibacterial activity against Acinetobacter baumannii CLB21655 infected in female DBA mouse blood stream infection model assessed as reduction in bacterial burden in spleen at 10 mg/kg, sc pre-infected with bacteria for 0.5 hrs followed by thrice daily compound administration and measured after 8 hrs (reference value: 6.3 log10CFU/g); format: functional
Acinetobacter baumannii [25] = assay: as §4, with “10” for “160”, “hrs” for “hrs in presence of ceftazidime”; format: functional
Acinetobacter baumannii [26] = assay: as §3, with “10” for “300”, “by” for “by once daily”, “6.3” for “9.7”; format: functional
Acinetobacter baumannii [27] = assay: as §4, with “640” for “160”, “avibactam” for “ceftazidime”; format: functional
Acinetobacter baumannii [28] = assay: as §5, with “640” for “160”, “avibactam” for “ceftazidime”; format: functional
Acinetobacter baumannii [29] = assay: Antibacterial activity against Acinetobacter baumannii ATCC19606 incubated for 18 to 20 hrs in presence of 10% human serum by microbroth dilution method; format: functional; conditions: time 18-20 hrs
Acinetobacter baumannii [30] = assay: Selectivity ratio of MIC95 for antibacterial activity against Acinetobacter baumannii ATCC19606 in the presence of 10% human serum to MIC95 for antibacterial activity against Acinetobacter baumannii ATCC19606; format: functional
[31] = AUC (0 to infinity) in male C57BL/6 mouse at 300 mg/kg, sc administered once in a day and measured after 24 hrs by LC-MS/MS analysis; format: ADME, organism-based; conditions: mouse, in vivo, sc, 300 mg/kg, 24 h
[32] = AUC (0 to infinity) in male C57BL/6 mouse at 300 mg/kg, sc administered 3 times a day with 3 hrs interval and measured after 24 hrs by LC-MS/MS analysis; format: ADME, organism-based; conditions: mouse, in vivo, sc, 300 mg/kg, 24 h
[33] = Cmax in male C57BL/6 mouse at 300 mg/kg, sc administered once in a day and measured after 24 hrs by LC-MS/MS analysis; format: ADME, organism-based; conditions: in vivo
[34] = Cmax in male C57BL/6 mouse at 300 mg/kg, sc administered 3 times a day with 3 hrs interval and measured after 24 hrs by LC-MS/MS analysis; format: ADME, organism-based; conditions: in vivo
[35] = Plasma protein binding in human at 1000 to 100000 ng/ml by equilibrium dialysis based LC-MS/MS analysis; format: ADME, cell-free; conditions: dose 1000-100000 ng/ml, read-out: PPB (converted)
[36] = Plasma protein binding in dog at 1000 to 100000 ng/ml by equilibrium dialysis based LC-MS/MS analysis; format: ADME, cell-free, Canis lupus familiaris; conditions: dose 1000-100000 ng/ml, read-out: PPB (converted)
Acinetobacter baumannii [37] = assay: as §2, with “with 6” for “with 3”; format: functional
Acinetobacter baumannii [38] = assay: as §3, with “thrice” for “once”, “administration with 6 hrs interval” for “administration”, “6.3” for “9.7”; format: functional

Work on `O=C(CCCOc1ccc(NS(=O)(=O)c2cnn(-c3ccc(F)cc3)c2)c(C(=O)O)c1)Nc1ccc(NS(=O)(=O)c2cnn(-c3ccc(F)cc3)c2)c(C(=O)O)c1` yielded an MIC95 (Acinetobacter baumannii [1]) of 0.277 µM (≈ 0.228 µg/mL), an EC50 at 24 h [2] greater than 42 µM and an EC50 [3] of 50 nM. For the same compound, the MIC95 (Acinetobacter baumannii [4]) was 2.03 µM, the fraction unbound [5] was 0.004 and the Selectivity ratio (Acinetobacter baumannii [6]) was 7.3. The “fold change (FC)” value (Acinetobacter baumannii [7]) was 0.63, the “fold change (FC)” value (Acinetobacter baumannii [8]) was 0 and the “fold change (FC)” value (Acinetobacter baumannii [9]) was 0.36. For the same compound, the “fold change (FC)” value (Acinetobacter baumannii [10]) was 1.9, the “fold change (FC)” value (Acinetobacter baumannii [11]) was 1.4 and the “fold change (FC)” value (Acinetobacter baumannii [12]) was 0.9. It also gave an MIC95 (Acinetobacter baumannii [13]) of 50 µM, an Activity (Acinetobacter baumannii [14]) of 5.9 log10CFU/g and an Activity (Acinetobacter baumannii [15]) of 6.5 log10CFU/g. The Activity (Acinetobacter baumannii [16]) was 6.2 log10CFU/g, the Activity (Acinetobacter baumannii [17]) was 4.4 log10CFU/g and the Activity (Acinetobacter baumannii [18]) was 8.3 log10CFU/g. The Activity (Acinetobacter baumannii [19]) was 8.8 log10CFU/g.

With `NC(=O)[C@@H]1CC[C@@H]2CN1C(=O)N2OS(=O)(=O)O` [AVIBACTAM] the “fold change (FC)” value (Acinetobacter baumannii [20]) was 2.1 and the Activity (Acinetobacter baumannii [21]) was 7.6 log10CFU/g.

For `CN(C)c1cc(NC(=O)CNC(C)(C)C)c(O)c2c1C[C@H]1C[C@H]3[C@H](N(C)C)C(O)=C(C(N)=O)C(=O)[C@@]3(O)C(O)=C1C2=O` [TIGECYCLINE], the Activity (Acinetobacter baumannii [22]) was 2.85 log10CFU/g, the “fold change (FC)” value (Acinetobacter baumannii [23]) was 3 and the “fold change (FC)” value (Acinetobacter baumannii [10]) was 2.8. The Activity (Acinetobacter baumannii [24]) was 3.5 log10CFU/g, the “fold change (FC)” value (Acinetobacter baumannii [25]) was 2.8 and the Activity (Acinetobacter baumannii [26]) was 3.5 log10CFU/g.

With `CC(C)(O/N=C(\C(=O)N[C@@H]1C(=O)N2C(C(=O)[O-])=C(C[n+]3ccccc3)CS[C@H]12)c1csc(N)n1)C(=O)O` [CEFTAZIDIME] the “fold change (FC)” value (Acinetobacter baumannii [27]) was 2.1 and the Activity (Acinetobacter baumannii [28]) was 7.6 log10CFU/g.

`O=C(O)c1cc(CN2CC(Oc3ccc(NS(=O)(=O)c4cnn(-c5ccc(F)cc5)c4)c(C(=O)O)c3)C2)ccc1NS(=O)(=O)c1cnn(-c2ccc(F)cc2)c1` showed an MIC95 (Acinetobacter baumannii [1]) of 0.277 µM (≈ 0.223 µg/mL), an EC50 at 24 h [2] greater than 42 µM and an EC50 [3] of 69 nM. For the same compound, the fraction unbound [5] was 0.002, the MIC95 (Acinetobacter baumannii [29]) was 6.25 µM and the Selectivity ratio (Acinetobacter baumannii [30]) was 23. The AUC [31] was 2270 µM·h, the AUC [32] was 22200 µM·h and the Cmax [33] was 662 µM. For the same compound, the Cmax [34] was 626 µM, the fraction unbound [35] was 0.006 and the fraction unbound [36] was 0.004. The “fold change (FC)” value (Acinetobacter baumannii [9]) was 3.2, the “fold change (FC)” value (Acinetobacter baumannii [37]) was 1.9 and the MIC95 (Acinetobacter baumannii [13]) was 50 µM. It also gave an Activity (Acinetobacter baumannii [16]) of 3.3 log10CFU/g and an Activity (Acinetobacter baumannii [38]) of 4.4 log10CFU/g.
